Experimental data reported in article PMC10786919, “Design-rules for stapled peptides with in vivo activity and their application to Mdm2/X antagonists” (Nature Communications, 2024).
Like-named read-outs stand apart in the source and are kept apart here. Positions of bridges follow the written chain, without caps; N, C: chain ends. Non-standard residues stand in square brackets, D forms with d. Residues, ends and D or L forms follow the SMILES beside them. dPhe(4-CF3) = N[C@H](Cc1ccc(C(F)(F)F)cc1)C(=O)O; dTrp(6-F) = N[C@H](Cc1c[nH]c2cc(F)ccc12)C(=O)O; Lys(N3) = [N-]=[N+]=NCCCC[C@H](N)C(=O)O; R8 = C=CCCCCCC[C@@](C)(N)C(=O)O; Cba = N[C@@H](CC1CCC1)C(=O)O; R5 = C=CCCC[C@@](C)(N)C(=O)O; S5 = C=CCCC[C@](C)(N)C(=O)O; βAla = NCCC(=O)O

What was measured:
[1] = system: cells transiently transfected with the NanoLuc-HaloTag vector; assay: Nanoclick permeability assay; details: 4Hr
In short: (§1)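 Azido-peptide permeability was read as loss of NanoBRET signal (donor 450 nm, acceptor 610 nm) after adding NanoBret618-azide at 10 μM final.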

[2] = Lactate dehydrogenase (LDH) release assay; format: cell-based
In short: (§2)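 Read-out was lactate dehydrogenase release, reflecting loss of membrane integrity, in reporter-engineered HCT116 cells (p53-responsive β-lactamase) seeded at 8000 cells per well. Final DMSO was 0.5%, and reported values are geometric means from three or more biological repeats.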

[3] = biological target: T1, human Mdm2 1–125 (Homo sapiens, UniProt Q00987); assay: Mdm2 binding by competitive fluorescence anisotropy assay (FP binding)
T1 construct: GST (N); His6 (internal); TEV cleavage site (ENLYFQG) (internal); made in house; host or cells: BL21 (DE3) Rosetta T1R Escherichia coli

[4] = Nanoclick permeability assay
In short: as §1

[5] = system: HCT116 cells; assay: Lactate dehydrogenase (LDH) release assay; format: cell-based
In short: as §2

[6] = system: Ca Ski cell line
In short: (§3)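 Compound dilution series (10 points, 3-fold, 10 mM top stock in DMSO) tested on overnight-plated Ca Ski cells in RPMI1640/10% FBS and on blasticidin-selected p53RE-bla HCT-116 cells in McCoy's 5A; read-out was CellTiter-Glo 2.0 luminescence after room-temperature equilibration.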

[7] = system: CellSensor p53RE-bla HCT-116 Cell Line
In short: as §3

[8] = 0% FBS 4Hr, read-out: LDH: Cytotoxicity assay EC50
[9] = 10% FBS 16Hr, read-out: LDH: Cytotoxicity assay EC50
[10] = 4 hours, 0% serum, read-out: LDH Cytotoxicity assay EC50
[11] = read-out: Cell Proliferation assay EC50, Ca-Ski, p53 Mut, Ca-Ski
[12] = read-out: Proliferation EC50 Ca Ski (Off-target), Ca Ski
[13] = read-out: Cell Proliferation assay EC50, HCT116, p53 WT, HCT116
[14] = read-out: Proliferation EC50 HCT116 (On-target), HCT116
[15] = FP binding assay KD, Tween-20 <CMC
[16] = Nanoclick permeability assay EC50
[17] = 0% FBS 4Hr, read-out: LDH: Cytotoxicity assay: EC50

T1 sequence (Q00987 with tags, fused parts or gaps): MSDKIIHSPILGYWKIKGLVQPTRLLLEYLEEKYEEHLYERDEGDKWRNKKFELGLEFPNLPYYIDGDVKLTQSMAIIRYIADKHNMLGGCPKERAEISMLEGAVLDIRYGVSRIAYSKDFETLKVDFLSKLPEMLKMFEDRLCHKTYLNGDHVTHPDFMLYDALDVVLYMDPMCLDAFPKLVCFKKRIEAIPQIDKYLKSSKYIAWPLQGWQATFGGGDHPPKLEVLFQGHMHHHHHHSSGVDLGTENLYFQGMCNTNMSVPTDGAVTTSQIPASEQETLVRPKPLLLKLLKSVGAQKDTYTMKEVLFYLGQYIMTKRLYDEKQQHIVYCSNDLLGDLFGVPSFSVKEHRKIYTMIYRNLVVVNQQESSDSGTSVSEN

| Compound | Nanoclick permeability assay % Effect [1] [%] | EC50 ([2]; LDH: Cytotoxicity assay EC50) [µM] | cell entry EC50 [4] [µM] | LDH: Cytotoxicity assay % Effect ([5]; 0% FBS 4Hr) [%] | LDH: Cytotoxicity assay % Effect ([5]; 10% FBS 16Hr) [%] | EC50 [2, 8] [µM] | EC50 [2, 9] [µM] | EC50 [6, 11] [µM] | EC50 [7, 13] [µM] | Kd ([3]; Binding KD) [µM] | Kd [3, 15] [µM] | further results |
| --- | --- | --- | --- | --- | --- | --- | --- | --- | --- | --- | --- | --- |
| CC(=O)N[C@@H](CC(C)C)C(=O)N[C@H](C(=O)N[C@@H](Cc1ccccc1)C(=O)N[C@]1(C)CCCCCCC=CCCC[C@@](C)(C(=O)N[C@@H](CO)C(=O)N[C@@H](C)C(=O)N[C@@H](C)C(N)=O)NC(=O)[C@@H](CC2CCC2)NC(=O)[C@H](CC(C)C)NC(=O)[C@H](CCC(N)=O)NC(=O)[C@H](Cc2c[nH]c3ccccc23)NC(=O)[C@H](Cc2ccc(O)cc2)NC(=O)[C@H](CCC(=O)O)NC1=O)[C@@H](C)O [MP-009] | 22.02 | > 50.7 |  |  |  |  |  |  |  |  |  | Kd ([3]; read-out: FP binding assay KD): 2.22 µM |
| CC(=O)N[C@@H](C(=O)N[C@H](C)C(=O)N[C@H](Cc1c[nH]c2cc(F)ccc12)C(=O)N[C@H](Cc1ccc(O)cc1)C(=O)N[C@H](C)C(=O)N[C@]1(C)CCCC=CCCC[C@](C)(C(=O)N[C@H](CC(C)C)C(=O)N[C@H](CO)C(=O)N[C@H](C)C(=O)N[C@H](C)C(=O)N[C@H](C)C(=O)N[C@H](C)C(=O)N[C@H](C)C(=O)N[C@H](C)C(N)=O)NC(=O)[C@@H](CCC(N)=O)NC(=O)[C@@H](CCC(=O)O)NC(=O)[C@@H](Cc2ccc(C(F)(F)F)cc2)NC1=O)[C@H](C)O [MP-042] (Ac-[dT][dA][dTrp(6-F)][dY][dA][R5][dPhe(4-CF3)][dE][dQ][R5][dL][dS][dA][dA][dA][dA][dA][dA]-NH2; staple 6-10) | 1.941 |  | > 10 | 8.154 | 15.87 | > 50.7 | > 50.7 | 32 | 4.24 | 0.03 | 0.00323 | EC50 [2, 10]: > 50 µM; EC50 [6, 12]: 31 µM; EC50 [7, 14]: 1.5 µM |
| CC(=O)N[C@@H](CCCCN=[N+]=[N-])C(=O)NCCC(=O)N[C@@H](CC(C)C)C(=O)N[C@H](C(=O)N[C@@H](Cc1ccccc1)C(=O)N[C@]1(C)CCCCCCC=CCCC[C@@](C)(C(=O)N[C@@H](CO)C(=O)N[C@@H](C)C(=O)N[C@@H](C)C(N)=O)NC(=O)[C@H](CC2CCC2)NC(=O)[C@H](CCC(N)=O)NC(=O)[C@H](C)NC(=O)[C@H](Cc2c[nH]c3ccccc23)NC(=O)[C@H](Cc2ccc(O)cc2)NC(=O)[C@H](Cc2c[nH]c3ccccc23)NC1=O)[C@@H](C)O [MP-185] (Ac-[Lys(N3)][βAla]LTF[R8]WYWAQ[Cba][S5]SAA-NH2; staple 6-13) | 140.4 | > 50 |  |  |  |  |  |  |  |  |  | cell entry EC50 [4, 16]: 0.0774 µM; EC50 ([6]; 72 h): > 49.8 µM; EC50 ([7]; 72 h): 1.97 µM; Kd ([3]; read-out: FP binding assay KD): 0.0985 µM |
| CC(=O)N[C@@H](C(=O)N[C@H](C)C(=O)N[C@H](Cc1c[nH]c2cc(F)ccc12)C(=O)N[C@H](Cc1ccc(O)cc1)C(=O)N[C@H](C)C(=O)N[C@]1(C)CCCC=CCCC[C@](C)(C(=O)N[C@H](CC(C)C)C(=O)N[C@H](CO)C(=O)N[C@H](C)C(=O)N[C@H](C)C(=O)N[C@H](C)C(N)=O)NC(=O)[C@@H](CCC(N)=O)NC(=O)[C@@H](CCC(=O)O)NC(=O)[C@@H](Cc2ccc(C(F)(F)F)cc2)NC1=O)[C@H](C)O [MP-0230] (Ac-[dT][dA][dTrp(6-F)][dY][dA][R5][dPhe(4-CF3)][dE][dQ][R5][dL][dS][dA][dA][dA]-NH2; staple 6-10) | 30.67 | > 50.7 |  |  |  |  |  |  |  |  |  | cell entry EC50 [4, 16]: > 10 µM; Kd ([3]; Tween-20 <CMC, read-out: FP binding assay KD): 0.00311 µM |
| CC(=O)N[C@@H](CCCCN=[N+]=[N-])C(=O)NCCC(=O)N[C@@H](CC(N)=O)C(=O)N[C@H](C(=O)N[C@@H](Cc1ccccc1)C(=O)N[C@]1(C)CCCCCCC=CCCC[C@@](C)(C(=O)N[C@@H](CC(N)=O)C(=O)N[C@@H](CC(N)=O)C(=O)N[C@@H](CC(N)=O)C(N)=O)NC(=O)[C@H](CC2CCC2)NC(=O)[C@H](CCC(N)=O)NC(=O)[C@H](CC(N)=O)NC(=O)[C@H](Cc2c[nH]c3ccccc23)NC(=O)[C@H](Cc2ccc(O)cc2)NC(=O)[C@H](CC(N)=O)NC1=O)[C@@H](C)O [MP-359, azide-ATSP-7041 (L1N, E5N, A8N, S12N, A13N, A14N)] (Ac-[Lys(N3)][βAla]NTF[R8]NYWNQ[Cba][S5]NNN-NH2; staple 6-13) | 112.9 |  | 0.38 |  |  |  |  |  |  | 0.015 |  | LDH: Cytotoxicity assay: % Effect ([5]; 0% FBS 4Hr): -2.842%; EC50 [2, 17]: > 50.6 µM; EC50 ([6]; read-out: Cell Proliferation assay EC50, p53 Mut, Ca-Ski): > 49.8 µM; EC50 ([7]; read-out: Cell Proliferation assay EC50, p53 WT, HCT116): 27.1 µM |
| CC(C)C[C@@H](NC(=O)[C@@]1(C)CCCC=CCCC[C@@](C)(NC(=O)[C@@H](C)NC(=O)[C@@H](Cc2ccc(O)cc2)NC(=O)[C@@H](Cc2c[nH]c3cc(F)ccc23)NC(=O)[C@@H](C)NC(=O)[C@H](N)[C@H](C)O)C(=O)N[C@H](Cc2ccc(C(F)(F)F)cc2)C(=O)N[C@H](CCC(=O)O)C(=O)N[C@H](CCC(N)=O)C(=O)N1)C(=O)N[C@H](CO)C(N)=O [MP-795] (H-[dT][dA][dTrp(6-F)][dY][dA][R5][dPhe(4-CF3)][dE][dQ][R5][dL][dS]-NH2; staple 6-10) | 23.68 |  | > 10 | 13.17 | 16.65 | > 50.7 | > 50.7 | 22.5 | 26.4 |  | 0.152 |  |
| CC(=O)N[C@@H](C(=O)N[C@H](C)C(=O)N[C@H](Cc1c[nH]c2cc(F)ccc12)C(=O)N[C@H](Cc1ccc(O)cc1)C(=O)N[C@H](C)C(=O)N[C@]1(C)CCCC=CCCC[C@](C)(C(=O)N[C@H](CC(C)C)C(=O)N[C@H](CO)C(N)=O)NC(=O)[C@@H](CCC(N)=O)NC(=O)[C@@H](CCC(=O)O)NC(=O)[C@@H](Cc2ccc(C(F)(F)F)cc2)NC1=O)[C@H](C)O [MP-797] (Ac-[dT][dA][dTrp(6-F)][dY][dA][R5][dPhe(4-CF3)][dE][dQ][R5][dL][dS]-NH2; staple 6-10) | 69.79 |  | > 10 | 33.6 | 29.91 | > 50.7 | > 50.7 | 30.4 | 9.09 |  | 0.258 | EC50 [2, 10]: > 50 µM; EC50 [6, 12]: 30.4 µM; EC50 [7, 14]: 9.1 µM |
| CC(=O)N[C@@H](CCCCN=[N+]=[N-])C(=O)NCCC(=O)N[C@@H](CC(C)C)C(=O)N[C@H](C(=O)N[C@@H](Cc1ccccc1)C(=O)N[C@]1(C)CCCCCCC=CCCC[C@@](C)(C(=O)N2CCC[C@@H]2C(=O)N2CCC[C@@H]2C(=O)N2CCC[C@@H]2C(=O)N2CCC[C@@H]2C(=O)N2CCC[C@@H]2C(=O)N2CCC[C@@H]2C(N)=O)NC(=O)[C@H](CC2CCC2)NC(=O)[C@H](CCC(N)=O)NC(=O)[C@H](C)NC(=O)[C@H](Cc2c[nH]c3ccccc23)NC(=O)[C@H](Cc2ccc(O)cc2)NC(=O)[C@H](CCC(=O)O)NC1=O)[C@@H](C)O [MP-896] | 114.3 |  | 1.42 |  |  |  |  | > 49.8 |  | 0.011 | 0.0109 | LDH: Cytotoxicity assay: % Effect ([5]; 0% FBS 4Hr): -5.717%; LDH: Cytotoxicity assay: % Effect ([5]; 10% FBS 16Hr): 1.172%; EC50 [2, 17]: > 50.7 µM; EC50 ([2]; 10% FBS 16Hr, read-out: LDH: Cytotoxicity assay: EC50): > 50.7 µM |
| CC(=O)N[C@@H](C(=O)N[C@H](C)C(=O)N[C@H](Cc1c[nH]c2cc(F)ccc12)C(=O)N[C@H](Cc1ccc(O)cc1)C(=O)N[C@H](C)C(=O)N[C@]1(C)CCCC=CCCC[C@](C)(C(=O)N[C@H](CC(C)C)C(=O)N[C@H](CO)C(=O)N[C@H](C)C(=O)N[C@H](C)C(=O)N[C@H](C)C(=O)N[C@H](C)C(=O)N[C@H](C)C(=O)N[C@H](C)C(=O)N[C@H](C)C(=O)N[C@H](C)C(=O)N[C@H](C)C(N)=O)NC(=O)[C@@H](CCC(N)=O)NC(=O)[C@@H](CCC(=O)O)NC(=O)[C@@H](Cc2ccc(C(F)(F)F)cc2)NC1=O)[C@H](C)O [MP-1230] (Ac-[dT][dA][dTrp(6-F)][dY][dA][R5][dPhe(4-CF3)][dE][dQ][R5][dL][dS][dA][dA][dA][dA][dA][dA][dA][dA][dA]-NH2; staple 6-10) |  |  |  | 4.322 | -2.735 | > 50.7 | > 50.7 | > 49.8 | 21.4 |  | 0.0217 |  |
